Tests used:
hNav1.6 = hNav1.6 (Homo sapiens, UniProt Q9UQD0); test: cell-based; details: patch clamp method not given; read-out: pIC50 Nav1.6 (converted)
hNav1.4 = hNav1.4 (Homo sapiens, UniProt P35499); test: cell-based; details: patch clamp method not given; read-out: pIC50 Nav1.4 (converted)
hNav1.7 = target: T1, hNav1.7 (Homo sapiens, UniProt Q15858); test: cell-based; details: patch clamp method not given; read-out: pIC50 Nav1.7 (converted)
T1 construct: host or cells: HEK293

[1] = rat, in vivo
[2] = rat, in vivo, iv; cited from earlier work
[3] = tested on: formalin-induced flinching, rat; details: in vivo
[4] = tested on: TTX-resistant sodium current, rat DRG cells; test: Rat DRG patch clamp, TTX-resistant current; format: cell-based
[5] = tested on: mixed sodium current, rat DRG cells; format: cell-based
[6] = tested on: TTX-sensitive current, rat DRG cells; format: cell-based
[7] = tested on: formalin-induced flinching, morphine-tolerant rats; details: rat, in vivo; cited from earlier work
[8] = tested on: formalin-induced flinching, morphine-tolerant rats; details: rat, in vivo
Experimental: A soft metal band was glued to the plantar side of one hind paw and rats were allowed to acclimate in the test chamber for 30 min. […] The incidence of nociceptive behavior - flinching and shaking of the injected paw was counted by an automated formalin apparatus (University Anesthesia Research and Development Group, Department of Anesthesiology, University of California, San Diego, La Jolla, CA). The number of paw flinches was tallied by minute over 60 min[60]. Total flinches in phase I (0~10 min) and phase II (11~60 min) were calculated.
Male Sprague-Dawley (CD) rats (Charles River, San Diego) ~250–300 g were catheterized intrathecally as described above. The non-indwelling end (PE60) of the catheter was connected to the flow modulator of an osmotic pump (Alzet 2001, 1 μl/h) loaded with morphine or saline vehicle, which underwent priming at 37 °C overnight in sterile saline. The osmotic pump was implanted subcutaneously above the scapula. To induce morphine tolerance, morphine was infused intrathecally by the osmotic pump at a dose of 15 μg/h for 7 days[61]. On day 7 the pumps were extracted and the wounds were closed with the intrathecal catheters left in place. Catheters were flushed with 20 μL of saline.

hNav1.4, sequence (P35499 whole entry): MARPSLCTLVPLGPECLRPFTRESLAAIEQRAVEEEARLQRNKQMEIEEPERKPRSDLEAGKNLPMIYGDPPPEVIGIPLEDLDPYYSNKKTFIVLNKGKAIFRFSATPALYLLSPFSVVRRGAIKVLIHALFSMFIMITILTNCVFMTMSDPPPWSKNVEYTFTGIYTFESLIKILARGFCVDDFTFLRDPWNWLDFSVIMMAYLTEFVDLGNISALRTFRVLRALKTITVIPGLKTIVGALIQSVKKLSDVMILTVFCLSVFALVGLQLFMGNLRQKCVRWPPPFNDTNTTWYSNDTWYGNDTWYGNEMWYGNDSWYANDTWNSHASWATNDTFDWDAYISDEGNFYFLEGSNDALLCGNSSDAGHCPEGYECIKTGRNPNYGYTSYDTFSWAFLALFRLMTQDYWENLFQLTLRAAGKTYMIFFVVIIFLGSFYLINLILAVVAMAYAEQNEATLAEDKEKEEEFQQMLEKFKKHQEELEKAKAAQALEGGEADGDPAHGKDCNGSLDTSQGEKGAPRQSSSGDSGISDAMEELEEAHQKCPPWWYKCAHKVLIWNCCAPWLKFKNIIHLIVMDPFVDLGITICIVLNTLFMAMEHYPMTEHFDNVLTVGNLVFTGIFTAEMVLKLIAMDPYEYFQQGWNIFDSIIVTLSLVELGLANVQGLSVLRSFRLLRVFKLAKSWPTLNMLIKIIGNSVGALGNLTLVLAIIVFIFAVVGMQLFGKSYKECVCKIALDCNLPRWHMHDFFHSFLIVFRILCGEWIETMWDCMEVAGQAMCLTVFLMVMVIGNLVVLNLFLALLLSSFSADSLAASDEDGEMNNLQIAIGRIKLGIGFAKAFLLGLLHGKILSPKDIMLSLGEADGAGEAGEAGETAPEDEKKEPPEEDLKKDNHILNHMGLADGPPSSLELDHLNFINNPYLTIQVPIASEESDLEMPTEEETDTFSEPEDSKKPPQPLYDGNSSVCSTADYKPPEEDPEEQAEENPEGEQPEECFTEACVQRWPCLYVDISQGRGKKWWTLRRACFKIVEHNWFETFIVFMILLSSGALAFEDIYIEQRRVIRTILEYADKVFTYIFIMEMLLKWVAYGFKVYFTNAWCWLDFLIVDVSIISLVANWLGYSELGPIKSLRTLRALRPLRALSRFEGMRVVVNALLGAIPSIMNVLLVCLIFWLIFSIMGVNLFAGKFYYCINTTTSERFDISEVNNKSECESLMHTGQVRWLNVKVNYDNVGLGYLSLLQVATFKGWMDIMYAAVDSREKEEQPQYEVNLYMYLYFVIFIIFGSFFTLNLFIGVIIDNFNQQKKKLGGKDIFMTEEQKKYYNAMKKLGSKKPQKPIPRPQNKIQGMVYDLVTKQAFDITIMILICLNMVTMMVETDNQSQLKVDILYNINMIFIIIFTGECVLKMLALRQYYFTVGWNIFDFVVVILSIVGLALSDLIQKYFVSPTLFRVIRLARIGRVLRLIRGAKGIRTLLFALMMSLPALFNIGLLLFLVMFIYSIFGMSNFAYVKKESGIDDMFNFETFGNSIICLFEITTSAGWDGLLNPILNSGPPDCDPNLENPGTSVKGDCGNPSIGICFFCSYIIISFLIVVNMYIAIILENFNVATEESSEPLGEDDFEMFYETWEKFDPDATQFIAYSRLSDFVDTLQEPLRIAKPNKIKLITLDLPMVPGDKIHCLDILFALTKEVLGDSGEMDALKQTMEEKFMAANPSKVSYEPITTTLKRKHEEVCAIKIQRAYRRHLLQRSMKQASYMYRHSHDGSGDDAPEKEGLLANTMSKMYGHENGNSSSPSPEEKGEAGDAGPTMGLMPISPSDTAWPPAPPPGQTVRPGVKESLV
T1 sequence (Q15858 whole entry): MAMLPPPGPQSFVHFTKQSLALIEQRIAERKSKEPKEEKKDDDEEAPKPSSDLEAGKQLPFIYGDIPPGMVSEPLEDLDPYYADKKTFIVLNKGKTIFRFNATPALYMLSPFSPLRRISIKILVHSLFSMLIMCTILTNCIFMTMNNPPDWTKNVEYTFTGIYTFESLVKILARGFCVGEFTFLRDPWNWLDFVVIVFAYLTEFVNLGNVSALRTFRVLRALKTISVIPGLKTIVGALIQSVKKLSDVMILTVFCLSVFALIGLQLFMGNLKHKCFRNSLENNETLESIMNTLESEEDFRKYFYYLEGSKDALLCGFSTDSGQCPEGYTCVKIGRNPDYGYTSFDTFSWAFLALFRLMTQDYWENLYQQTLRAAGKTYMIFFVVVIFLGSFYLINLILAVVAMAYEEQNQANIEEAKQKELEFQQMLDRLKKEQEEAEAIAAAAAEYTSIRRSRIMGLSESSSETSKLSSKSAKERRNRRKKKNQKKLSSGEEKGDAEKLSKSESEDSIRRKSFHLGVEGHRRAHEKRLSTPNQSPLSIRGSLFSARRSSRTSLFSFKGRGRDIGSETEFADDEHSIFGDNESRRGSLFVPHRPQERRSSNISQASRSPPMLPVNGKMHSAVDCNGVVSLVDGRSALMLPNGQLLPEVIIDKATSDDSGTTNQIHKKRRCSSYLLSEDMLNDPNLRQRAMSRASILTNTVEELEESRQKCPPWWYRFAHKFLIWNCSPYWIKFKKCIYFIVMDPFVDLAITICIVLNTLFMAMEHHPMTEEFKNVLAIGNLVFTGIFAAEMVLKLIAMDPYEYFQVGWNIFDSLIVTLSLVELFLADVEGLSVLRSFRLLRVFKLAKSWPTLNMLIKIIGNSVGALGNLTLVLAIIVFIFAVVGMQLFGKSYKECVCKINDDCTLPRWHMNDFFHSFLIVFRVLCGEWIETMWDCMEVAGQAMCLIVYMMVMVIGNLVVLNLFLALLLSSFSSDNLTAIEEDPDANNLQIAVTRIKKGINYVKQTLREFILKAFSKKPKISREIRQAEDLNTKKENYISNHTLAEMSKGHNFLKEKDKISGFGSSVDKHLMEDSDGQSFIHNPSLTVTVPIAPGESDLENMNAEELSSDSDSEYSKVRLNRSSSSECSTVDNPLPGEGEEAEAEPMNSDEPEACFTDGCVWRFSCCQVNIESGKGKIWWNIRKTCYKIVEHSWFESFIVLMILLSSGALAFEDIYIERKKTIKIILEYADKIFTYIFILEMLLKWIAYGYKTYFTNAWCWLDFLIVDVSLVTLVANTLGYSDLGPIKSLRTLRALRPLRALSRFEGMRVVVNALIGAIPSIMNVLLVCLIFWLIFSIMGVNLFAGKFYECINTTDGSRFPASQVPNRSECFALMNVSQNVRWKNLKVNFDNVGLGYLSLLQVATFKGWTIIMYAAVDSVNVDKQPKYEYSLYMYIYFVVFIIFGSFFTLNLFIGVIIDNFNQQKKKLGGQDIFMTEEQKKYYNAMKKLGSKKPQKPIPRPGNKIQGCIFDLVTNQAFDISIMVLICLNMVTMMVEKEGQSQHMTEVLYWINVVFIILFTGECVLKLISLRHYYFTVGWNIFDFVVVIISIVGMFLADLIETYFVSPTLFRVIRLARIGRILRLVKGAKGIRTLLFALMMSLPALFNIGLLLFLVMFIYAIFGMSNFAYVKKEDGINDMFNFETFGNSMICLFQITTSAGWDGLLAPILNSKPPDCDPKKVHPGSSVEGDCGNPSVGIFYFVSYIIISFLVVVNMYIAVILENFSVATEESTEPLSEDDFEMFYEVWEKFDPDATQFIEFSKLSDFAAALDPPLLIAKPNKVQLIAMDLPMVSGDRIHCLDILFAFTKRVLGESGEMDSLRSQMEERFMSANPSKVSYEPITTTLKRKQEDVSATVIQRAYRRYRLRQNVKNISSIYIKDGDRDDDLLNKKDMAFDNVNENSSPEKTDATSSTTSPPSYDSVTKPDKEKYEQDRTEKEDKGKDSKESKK

Molecule: CSCC[C@@H]1NC(=O)CNC(=O)[C@H](CCC(=O)O)NC(=O)[C@@H]2CSSC[C@H](NC(=O)[C@@H](N)Cc3ccc(O)cc3)C(=O)N[C@@H](CCC(N)=O)C(=O)N[C@@H](CCCCN)C(=O)N[C@@H](Cc3c[nH]c4ccccc34)C(=O)N[C@@H](CCSC)C(=O)N[C@@H](CCC(N)=O)C(=O)N[C@@H]([C@@H](C)O)C(=O)N[C@H]3CSSC[C@H](NC(=O)[C@H](C(C)C)NC1=O)C(=O)N[C@@H](CCCNC(=N)N)C(=O)N[C@@H](CC(C)C)C(=O)N[C@@H](Cc1c[nH]c4ccccc14)C(=O)N[C@H](C(=O)N[C@@H](CCCCN)C(=O)N[C@@H](CCCCN)C(=O)N[C@@H](CCCCN)C(=O)N[C@@H](CC(C)C)C(=O)N[C@@H](CC(C)C)C(=O)O)CSSC[C@H](NC(=O)[C@H](CCCCN)NC(=O)[C@H](CCCNC(=N)N)NC(=O)[C@H](CCC(=O)O)NC(=O)[C@H](CO)NC(=O)[C@H](CC(=O)O)NC3=O)C(=O)N2 [ProTX-II W7Q, W30L]
- IC50 (hNav1.6): 2000 nM
- IC50 (hNav1.4): 3980 nM
- IC50 (hNav1.7): 10 nM

Molecule: ziconotide [reference compound]
- behavioral side effects [1]: whole body shakes, increased muscle tone and “serpentine” tail movement
- scratching behavior [1]: did not induce scratching behavior
- histamine release and hemodynamic changes [2]: induce histamine release and associated hemodynamic changes
- pED50 formalin (phase II) [3]: 7.1 ± 0.18 −log g

Molecule: NC1=N[C@H](O)[C@H]2[C@H]3O[C@]4(O)O[C@@H]([C@@H](O)[C@@]2(N1)[C@@H]4O)[C@]3(O)CO [TTX, tetrodotoxin]
- block, predominantly TTX-resistant cells [4]: < 10%
- block, mixed cells [5]: 29–68%
- block, predominantly TTX-sensitive cells [6]: ~ 100%

Molecule: CN1CC[C@]23c4c5ccc(O)c4O[C@H]2[C@@H](O)C=C[C@H]3[C@H]1C5 [morphine]
- pED50 formalin (phase II) [3]: 5.4 ± 0.22 −log g
- block of phase 2 during morphine infusion, day 2 [7]: significant block of phase 2 on day 2
- efficacy during morphine infusion, day 7 [8]: loses its efficacy by day 7
- phase II formalin flinching, morphine-tolerant rats [8]: did not significantly reduce phase II formalin flinching
